In US20080039422A1, “Vitamin B12-Containing Compositions and Methods of Use” (Transition Therapeutics Inc., priority 2004, published 2008):

How the values were obtained:
[1] = CN-Cbl concentration in excipient solutions after challenge, mixing and heating; format: physicochemical
Protocol: The experiments conducted in this series feature cyanocobalamin (CN-Cbl). Varying amounts of CN-Cbl were added to various excipients, including water alone, water with one other agent (e.g., ethanol) and water with two other agents (e.g., ethanol and propylene glycol). The stability was tested after varying amounts of time, and following procedures in which the vitamin B12 compound and its excipient were combined by vigorous mixing and heated.
More specifically, for each excipient condition, CN-Cbl was weighed into an Eppendorf tube, and an appropriate volume of excipient solution was added to achieve the “challenge” concentration in a total volume of ˜0.4-0.7 ml. The tube was then vortexed before being heated to 60° C. for two hours, with additional mixing by vortexing carried out for 5-10 seconds every 5-10 minutes.
Following the mixing and heating procedure described above, the tubes were cooled to room temperature (RT) and left at room temperature for 1-2 hours. Before measuring the concentration of CN-Cbl, the solutions were clarified by centrifugation for ten minutes at rcf 16,100. […] Cyanocobalamin and cyanocobalamin-containing solutions were protected from light (by being kept covered with foil) as much as practicable.
In one study, CN-Cbl was combined with excipients containing propylene glycol, ethanol, PEG 300, or glycerol so that the final maximum concentration of CN-Cbl could be as high as 100 mg/ml. The amount of each excipient was also varied from 5-80% (however, not all possible variants were tested). […] The concentration of CN-Cbl to be solubilized (the “challenge”) in each case was 100 mg/ml of CN-Cbl, and the concentration of each of the excipients varied from 5% to 80% in water. […] The concentrations of CN-Cbl in other excipients were even greater. For example, the concentration of CN-Cbl in solutions containing 40 or 50% PEG 300 was about 45 mg/ml; the concentration in 15% ethanol was about 35 mg/ml; the concentration in 20% ethanol was about 52 mg/ml; and the concentrations in propylene glycol at any concentration over 30% was more than 85 mg/ml (see Table 1).
In other studies, combinations were tested of ethanol and propylene glycol or of ethanol and PEG 300. Tables 2A-2D are tables showing the concentrations of cyanocobalamin (CN-Cbl; mg/ml) in combinations of excipients. […] The concentrations of ethanol ranged from 0-20% and the concentrations of propylene glycol ranged from 0 to 60%. […] In Table 2C, the amount of propylene glycol and the amount of CN-Cbl (the “challenge”) varied. The excipient contained 20% ethanol and 0-40% propylene glycol, and the amount of CN-Cbl challenge added varied from 50-200 mg/ml. Table 2D reports final concentrations of CN-Cbl when excipients containing varying amounts of propylene glycol and ethanol were challenged with 400 mg/ml CN-Cbl.

[2] = Stability of CN-Cbl solutions stored at room temperature (3 days, 2 weeks); format: physicochemical; conditions: After 2 weeks at Room Temperature, ethanol 0%, PG 0% (v/v)
[3] = Formulation of a buffer system; format: physicochemical; conditions: 0.025 M phosphate buffer system, pH 8
Protocol: It was also noted that changes in pH occurred during the solubility study. […] A suitable 0.025 M buffer system was developed containing 7.25 mg/ml disodium hydrogen phosphate dodecahydrate and 0.74 mg/ml sodium dihydrogen phosphate dihydrate.

[4] = reported, cited from earlier work

cyanocobalamin [CN-Cbl]
final concentration of CN-Cbl ([1]; challenge 50 mg/ml, 20% ethanol and 0-40% propylene glycol): about 50 mg/ml | concentration of CN-Cbl ([1]; challenge 100 mg/mL, Ethanol 10.0% (v/v)): 29400 µg/mL | concentration of CN-Cbl ([1]; challenge 100 mg/mL, Glycerol 10.0% (v/v)): 18200 µg/mL | concentration of CN-Cbl ([1]; challenge 100 mg/mL, Glycerol 15.0% (v/v)): 19400 µg/mL | concentration of CN-Cbl ([1]; challenge 100 mg/mL, Glycerol 20.0% (v/v)): 21500 µg/mL | concentration of CN-Cbl ([1]; challenge 100 mg/mL, H2O): 14100 µg/mL | concentration of CN-Cbl ([1]; challenge 100 mg/mL, PEG 300 10.0% (v/v)): 24100 µg/mL | concentration of CN-Cbl ([1]; challenge 100 mg/mL, PEG 300 20.0% (v/v)): 34400 µg/mL | concentration of CN-Cbl ([1]; challenge 100 mg/mL, PEG 300 30.0% (v/v)): 40500 µg/mL | concentration of CN-Cbl ([1]; challenge 100 mg/mL, Propylene Glycol 10.0% (v/v)): 28100 µg/mL | concentration of CN-Cbl ([1]; challenge 100 mg/mL, Propylene Glycol 20.0% (v/v)): 41800 µg/mL | concentration of CN-Cbl ([1]; challenge 100 mg/mL, Propylene Glycol 30.0% (v/v)): 95300 µg/mL | concentration of CN-Cbl ([1]; challenge 100 mg/mL, Propylene Glycol 40.0% (v/v)): 95100 µg/mL | concentration of CN-Cbl ([1]; challenge 100 mg/mL, Propylene Glycol 50.0% (v/v)): 95100 µg/mL | concentration of CN-Cbl ([1]; challenge 100 mg/mL, Propylene Glycol 60.0% (v/v)): 95100 µg/mL | concentration of CN-Cbl ([1]; challenge 100 mg/mL, Propylene Glycol 70.0% (v/v)): 85300 µg/mL | concentration of CN-Cbl ([1]; challenge 100 mg/mL, Propylene Glycol 80% (v/v)): 90100 µg/mL | final concentration of CN-Cbl ([1]; challenge 100 mg/ml, 20% ethanol and 0-40% propylene glycol): about 100 mg/ml | concentration of CN-Cbl ([1]; challenge 100 mg/ml, propylene glycol at any concentration over 30%): more than 85 mg/ml | final concentration of CN-Cbl ([1]; challenge 175 mg/ml, 20% ethanol and 20% propylene glycol): about 177 mg/ml | concentration of CN-Cbl ([1]; challenge 200 mg/ml, PEG 300 40%, ethanol 5%): 77000 µg/mL | concentration of CN-Cbl ([1]; challenge 200 mg/ml, PEG 300 40%, ethanol 10%): 44400 µg/mL | concentration of CN-Cbl ([1]; challenge 200 mg/ml, PEG 300 40%, ethanol 15%): 62500 µg/mL | concentration of CN-Cbl ([1]; challenge 200 mg/ml, PG 0%, ethanol 0%): 17500 µg/mL | concentration of CN-Cbl ([1]; challenge 200 mg/ml, PG 0%, ethanol 5%): 22500 µg/mL | concentration of CN-Cbl ([1]; challenge 200 mg/ml, PG 0%, ethanol 10%): 28500 µg/mL | concentration of CN-Cbl ([1]; challenge 200 mg/ml, PG 0%, ethanol 15%): 27700 µg/mL | concentration of CN-Cbl ([1]; challenge 200 mg/ml, PG 0%, ethanol 20%): 176000 µg/mL | concentration of CN-Cbl ([1]; challenge 200 mg/ml, PG 20%, ethanol 0%): 31300 µg/mL | concentration of CN-Cbl ([1]; challenge 200 mg/ml, PG 20%, ethanol 5%): 34400 µg/mL | concentration of CN-Cbl ([1]; challenge 200 mg/ml, PG 20%, ethanol 10%): 55600 µg/mL | concentration of CN-Cbl ([1]; challenge 200 mg/ml, PG 20%, ethanol 15%): 182500 µg/mL | concentration of CN-Cbl ([1]; challenge 200 mg/ml, PG 20%, ethanol 20%): 177500 µg/mL | concentration of CN-Cbl ([1]; challenge 200 mg/ml, PG 30%, ethanol 0%): 35900 µg/mL | concentration of CN-Cbl ([1]; challenge 200 mg/ml, PG 30%, ethanol 5%): 64800 µg/mL | concentration of CN-Cbl ([1]; challenge 200 mg/ml, PG 30%, ethanol 15%): 150500 µg/mL | concentration of CN-Cbl ([1]; challenge 200 mg/ml, PG 30%, ethanol 20%): 180200 µg/mL | concentration of CN-Cbl ([1]; challenge 200 mg/ml, PG 40%, ethanol 0%): 172500 µg/mL | concentration of CN-Cbl ([1]; challenge 200 mg/ml, PG 40%, ethanol 5%): 177100 µg/mL | concentration of CN-Cbl ([1]; challenge 200 mg/ml, PG 40%, ethanol 10%): 184400 µg/mL | concentration of CN-Cbl ([1]; challenge 200 mg/ml, PG 40%, ethanol 20%): 186000 µg/mL | concentration of CN-Cbl ([1]; challenge 200 mg/ml, PG 50%, ethanol 0%): 145100 µg/mL | concentration of CN-Cbl ([1]; challenge 200 mg/ml, PG 50%, ethanol 5%): 179400 µg/mL | concentration of CN-Cbl ([1]; challenge 200 mg/ml, PG 50%, ethanol 10%): 190200 µg/mL | concentration of CN-Cbl ([1]; challenge 200 mg/ml, PG 50%, ethanol 15%): 179400 µg/mL | concentration of CN-Cbl ([1]; challenge 200 mg/ml, PG 50%, ethanol 20%): 187900 µg/mL | concentration of CN-Cbl ([1]; challenge 200 mg/ml, PG 60%, ethanol 0%): 185200 µg/mL | concentration of CN-Cbl ([1]; challenge 200 mg/ml, PG 60%, ethanol 5%): 184800 µg/mL | concentration of CN-Cbl ([1]; challenge 200 mg/ml, PG 60%, ethanol 10%): 186800 µg/mL | concentration of CN-Cbl ([1]; challenge 200 mg/ml, PG 60%, ethanol 15%): 186400 µg/mL | concentration of CN-Cbl ([1]; challenge 200 mg/ml, PG 60%, ethanol 20%): 196000 µg/mL | concentration of CN-Cbl ([1]; control experiments: water, challenged with 200 mg/ml): about 20 mg/ml | CN-Cbl solubilized ([1]; water, regardless of the amount of the challenge (50-200 mg/ml)): no more than 30 mg/ml | Conc of CN-Cbl ([2]; challenge 50 mg/mL): 11460 µg/mL | Conc of CN-Cbl ([2]; challenge 75 mg/mL): 12310 µg/mL | reduction of pH of the buffered solution on addition of CN-Cbl [3]: 0.1 pH unit | hygroscopicity ([4]; anhydrous form): very hygroscopic | solubility in water ([4]; 1:80 (Merck Index 1996)): ~12.5 mg/mL
